From patent US10253069B2, “Compositions and methods for regulating arterial tone” (University of Virginia Patent Foundation, priority 2012, dated 2019)

Key:
[1] = system: eNOS phosphorylation on serine 1177; test: Western blot of pS1177 eNOS in coronary endothelial cells; assay type: cell-based, human; settings: 5 μmol/L peptide, 20 minutes
Description: (§1) Primary coronary endothelial cells (Lonza) were cultured on plastic 6-well dishes as previously described^9. For studies involving basal NO release, endothelial cells were incubated with 5 μmol/L of Scr X or Hb α X for 20 minutes followed by medium collection and nitrite measurements as described below. For bradykinin studies, coronary endothelial cells were grown to confluence followed by serum starvation overnight in a cocktail of Lonza EGM-2 medium supplemented with EGM-2 bullet kit and Opti MEM reduced growth medium using a ratio of 1:9 respectively. The next day, endothelial cells were incubated with Scr X or Hb α X peptide for 20 minutes followed by the addition of 10 μM bradykinin (Sigma) for 5 minutes followed by medium collection for nitrite measurements as described below.
Endothelial cells were harvested in lysis buffer, sonicated and subjected to electrophoresis using 10% Bis-Tris gels (Invitrogen) as previously described^13. Proteins were transferred to nitrocellulose, incubated with phospho-eNOS S1177 (BD Biosciences) or total eNOS (Sigma) and visualized and quantitated using Li-Cor Odyssey Imager as previously described^14.

thoracodorsal arteries [2] = test: Pressure myography on thoracodorsal arteries, phenylephrine dose response with peptides; design: species or system mouse
[3] = system: human coronary endothelial cells; test: Nitrite measurements from media of coronary endothelial cells; assay type: cell-based
Description: as §1
Quantitation of nitrite in culture medium was measured by chemiluminescence using a Sievers nitric oxide analyzer according to manufacturer's instructions. Quantitation of peaks was analyzed using Origin Pro 6.0 as previously described^9.

eNOS/Hb α interaction = biological target: T1, eNOS/Hb α interaction (Homo sapiens, UniProt P29474); test: Purified eNOS and Hb α protein interaction (co-immunoprecipitation, Western blot); assay type: binding
T1 construct: purchased Origene
T1 sequence (P29474 2-1203 limits assumed): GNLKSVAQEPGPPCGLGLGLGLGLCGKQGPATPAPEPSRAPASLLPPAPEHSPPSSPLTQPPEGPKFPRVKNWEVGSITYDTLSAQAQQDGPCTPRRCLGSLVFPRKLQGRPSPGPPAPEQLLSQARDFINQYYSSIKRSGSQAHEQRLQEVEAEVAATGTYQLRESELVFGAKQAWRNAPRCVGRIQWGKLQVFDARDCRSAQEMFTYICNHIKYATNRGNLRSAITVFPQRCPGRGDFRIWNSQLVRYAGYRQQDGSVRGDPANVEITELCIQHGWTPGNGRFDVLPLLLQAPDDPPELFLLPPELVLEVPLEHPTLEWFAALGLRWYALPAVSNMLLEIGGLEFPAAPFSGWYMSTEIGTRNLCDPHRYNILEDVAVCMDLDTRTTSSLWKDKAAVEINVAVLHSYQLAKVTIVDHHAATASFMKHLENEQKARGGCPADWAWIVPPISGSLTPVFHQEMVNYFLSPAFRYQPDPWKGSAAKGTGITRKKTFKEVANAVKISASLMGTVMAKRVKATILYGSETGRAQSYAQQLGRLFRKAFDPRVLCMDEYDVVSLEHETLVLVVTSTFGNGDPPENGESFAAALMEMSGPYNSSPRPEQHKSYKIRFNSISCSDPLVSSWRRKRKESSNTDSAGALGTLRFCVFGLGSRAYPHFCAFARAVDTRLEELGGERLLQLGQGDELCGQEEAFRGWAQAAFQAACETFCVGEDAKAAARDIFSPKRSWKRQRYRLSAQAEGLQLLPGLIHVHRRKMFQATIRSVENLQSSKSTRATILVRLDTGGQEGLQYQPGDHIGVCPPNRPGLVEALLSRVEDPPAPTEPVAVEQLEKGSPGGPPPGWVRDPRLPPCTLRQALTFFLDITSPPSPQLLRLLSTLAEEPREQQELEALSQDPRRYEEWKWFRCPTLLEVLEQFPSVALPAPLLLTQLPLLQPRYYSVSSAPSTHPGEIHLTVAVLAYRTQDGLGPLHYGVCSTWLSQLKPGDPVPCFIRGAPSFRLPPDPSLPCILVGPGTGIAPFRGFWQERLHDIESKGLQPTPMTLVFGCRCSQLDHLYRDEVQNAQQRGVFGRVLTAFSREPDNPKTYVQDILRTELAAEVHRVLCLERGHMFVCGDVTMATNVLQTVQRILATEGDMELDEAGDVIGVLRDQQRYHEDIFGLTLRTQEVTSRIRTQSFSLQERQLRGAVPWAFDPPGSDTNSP
Description: Purified Flag-eNOS was purchased from Origene and isolated Hb α chains were generated as previously described^9. Co-immunoprecipitation studies were performed by incubating 1 μg of Flag-eNOS with 5 μmol/L of each peptide (tat-only, Scr X or Hb α X) for 30 minutes at 37° C. while shaking. Then, 1 μg of isolated Hb α chains were added to the Flag-eNOS/peptide complex for an additional 30 minutes at 37° C. shaking. Anti-Flag nickel beads, blocked with 1% bovine albumin serum for 1 hour, were added to each condition for an additional hour with agitation. Proteins were washed 3× with PBS for 15 minutes and purified protein-protein complexes were precipitated using a strong magnet. The nickel beads were incubated with 5×SDS PAGE buffer to elute proteins off the beads. Samples were subjected to Western blot analysis to determine peptide-induced disruption of Hb α and eNOS binding.

thoracodorsal arteries [4] = test: cGMP assay on thoracodorsal arteries; design: species or system mouse
Description: Isolated thoracodorsal arteries were cannulated and pressurized to 80 mmHg as previously described^13. Arteries were perfused with 5 μM Scr X or Hb α X with addition of 0.5 mmol/L of the phosphodiesterase inhibitor 3-isobutyl-1-methylxanthine (IBMX) (all conditions) or 100 μmol/L the nitric oxide synthase inhibitor L-NG-Nitroarginine Methyl Ester (L-NAME) for 20 minutes. Arteries were then stimulated with 50 μM phenylephrine for 10 minutes and immediately immersed in lysis buffer provided in the cGMP XP assay Kit (Cell Signaling) according to manufactures instructions. Briefly, a competition enzyme-linked immunoassay was used to generate a standard curve of known cGMP concentrations followed by calculating cGMP concentrations of experimental samples. The cGMP concentration in experimental samples was normalized to total protein concentration.

abdominal aortic rings = test: Abdominal aorta ring assay; design: species or system mouse; settings: compared to untreated aortas or aortas treated with Scr X
Description: Abdominal aortas were isolated, cut into 2 mm wide rings and mounted on a DMT myograph system with low bath volumes as previously described^16. Briefly, rings were stretched at 1.2× resting length in Krebs solution and allowed to equilibrate for 30 min at 37° C. prior to depolarization with […] K^+ [i]. Following the high K^+ contraction, rings were returned to Krebs solution and incubated with 5 μmol/L Scr X or Hb α X peptide for 20 minutes. Cumulative concentrations of phenylephrine (PE) (10^−10-10^−4 mol/L) were added to the rings and the magnitude of the tension response measured in milli-newtons.

## Peptide LSFPTTKTYF (SEQ ID NO:2), first ten amino acids of the Hb α sequence, with HIV-tat tag YGRKKRRQRRR at the N-terminus [Hb α X]
[1]
  Basal eNOS phosphorylation on serine 1177: no differences
Thoracodorsal arteries [2]; compared to untreated arteries
  Constriction in phenylephrine dose response curves: significant decrease in constriction
Thoracodorsal arteries [2]; phenylephrine dose response, thoracodorsal arteries perfused with peptide
  Emax, vascular reactivity dose response curves: 68.0 ± 5.3 % initial diameter
Thoracodorsal arteries [2]; plus L-NAME 100 μmol/L
  Constriction in phenylephrine dose response curves with L-NAME: reversed
[3]; 10 μM bradykinin, 5 minutes, Scr X vs Hb α X
  Nitrite accumulation following stimulation with bradykinin: no change
[3]; unstimulated cells
  Accumulation of nitrite in the culture medium, basal: no differences
eNOS/Hb α interaction; 5 μmol/L peptide, Flag-eNOS and purified Hb α chains
  eNOS/Hb α interaction: significantly disrupted
eNOS/Hb α interaction; purified Hb α and eNOS protein
  Inhibition of binding: > 90%
Thoracodorsal arteries [4]; phenylephrine stimulation plus L-NAME
  cGMP accumulation with L-NAME: reversed
Thoracodorsal arteries [4]; phenylephrine stimulation, compared to Scr X peptide
  cGMP accumulation: significant increase
Abdominal aortic rings
  Phenylephrine dose response curves: no significant change
